The text below walks through data of patent US6346402B1, “(S)-α-phenethylamine: pyruvate transaminase” (Kaneka Corporation, priority 1998, dated 2002).

Assay [1] concerns (S)-α-phenethylamine:pyruvate transaminase. In words: Substrate specificity for amino group receptors (acetophenone quantified by HPLC). The class given is biochemical, Pseudomonas sp. KNK425. The method, then: The mixture was reacted at 30° C. for 1 hour. The resulting reaction mixture was analyzed by high-performance liquid chromatography, to quantify acetophenone.
(§1) The assay conditions by high-performance liquid chromatography are as follows.

The test system is the same in assay [2]. Description: Substrate specificity for amino group donors (dabsylated alanine quantified by HPLC). The settings on record: for Relative Activity (%): substance as amino group donor, 22.5 mM, 22.5 mM pyruvic acid, pH 7.0, 30° C., 1 hour, (S)-phenethylamine = 100, Table 2. The class given is biochemical, Pseudomonas sp. KNK425. As for the experimental part:
The mixture was reacted at 30° C. for 1 hour, and thereafter immersed in boiling water for 5 minutes, to stop the reaction. The reaction mixture obtained after termination of reaction was diluted five times with 0.2M sodium carbonate buffer, and 0.2 mL of a 10 mM acetone solution of dabsyl chloride was added to 0.1 mL portion of the resulting dilution. The reaction mixture was reacted at 70° C. for 15 minutes, and after cooling, 0.1 mL of 1 N HCl was added. This reaction mixture was analyzed by high-performance liquid chromatography to quantify dabsylated alanine.
as §1
The results thereof, expressed in terms of the relative activity where an activity when using (S)-phenethylamine as an amino group donor is 100, are shown in Table 2.

Assay [3] has the same test system. The description is as above. It is filed as biochemical, Pseudomonas sp. KNK425. The settings on record: substance as amino group donor; for Relative Activity (%): Table 1; for Relative Activity (%) of (S)-α-Phenethylamine:Pyruvate Transaminase [Present Invention]: Table 4.
For assay [4], the system named is ω-amino acid:pyruvate transaminase. The settings on record: substance as amino group donor; amino group receptor pyruvic acid; Table 4; cited from earlier work.
Assay [5] concerns 4-aminobutyrate:2-ketoglutarate transaminase. The conditions noted are these: substance as amino group donor; amino group receptor 2-ketoglutaric acid; Table 4; cited from earlier work.
The mark [6] stands for this setting: ketone compound as amino group receptor, donor (S)-α-phenethylamine, same manner as Example 5, Table 5.
Setting [7] is: amino group receptor pyruvic acid.
The mark [8] stands for this setting: substance as amino group receptor, 22.5 mM, donor 22.5 mM (S)-α-phenethylamine, pH 7.0, 30° C., 1 hour, pyruvic acid = 100, Table 3.
[9] abbreviates: compound as amino group receptor, donor (S)-α-phenethylamine, same manner as Example 5, Table 6.
Where [10] appears, read: amino group receptor 2-ketoglutaric acid.

Entries after “also recorded” stand apart in the source; their conditions may differ.

In the case of `CC(=O)c1nccs1` [2-Acetylthiazole], the “Relative Activity (%)” value in assay [1] (setting [6]) was 4%.

Regarding `CCCC(C)N` (stereo not shown) [2-Pentylamine], the “Relative Activity (%)” value in assay [2] turned out to be 4%. Turning to `CC(=O)c1cccc(O)c1` [3′-Hydroxyacetophenone], in assay [1] (setting [6]), the “Relative Activity (%)” value came to 6%. As to `N[C@@H](CC(=O)O)C(=O)O` [L-Aspartic Acid], the “Activity of the enzyme to the substance as amino group donor (in words)” value (“Activity … as amino group donor (in words)” for short) in assay [2] was “does not act”. For the same compound, the “Relative Activity (%)” value in assay [3] (setting [7]) is given as 0%.

Turning to `NC(CCC(=O)O)C(=O)O` (racemic) [DL-Glutamic Acid], in assay [2], the “Activity … as amino group donor (in words)” value is reported as “does not act”. In assay [3] (setting [7]), the “Relative Activity (%)” value was 0%. On the same counts, the results for `NCC(=O)O` [Glycine] are “does not act” and 0%. Take `CC(=O)c1ccncc1` [4-Acetylpyridine]: in assay [1] (setting [6]), the “Relative Activity (%)” value is 8%.

For the compound `O=C(O)CCC(=O)C(=O)O` [2-Ketoglutaric acid], in assay [1], the “Activity of the enzyme to the substance as amino group receptor (in words)” value (“Activity … as amino group receptor (in words)” for short) is given as “did not exhibit an activity; also recorded: does not act”. Also, the “Relative Activity (%)” value in assay [1] (setting [8]) is reported as 0%. Turning to `CC(=O)C(=O)O` [Pyruvic acid], the “Activity … as amino group receptor (in words)” value in assay [1] is recorded as “high activity; also recorded: exhibiting activity; also recorded: exhibits activity”. Moreover, the “Relative Activity (%)” value in assay [1] (setting [9]) and in assay [1] (setting [8]) was 100% each time.

`CCCCCCC(C)N` (stereo not shown) [2-Octylamine]: in assay [2], the “Relative Activity (%)” value is 46%. Consider `NC1CCCCC1` [Cyclohexylamine], for which, in assay [2], the “Relative Activity (%)” value was 1%. On to `Cl.N` [Ammonium Chloride], for which the “Activity … as amino group donor (in words)” value in assay [2] was “does not also act”. Moreover, the “Relative Activity (%)” value in assay [3] (setting [7]) is 0%. Regarding `CCCCCN` [Amylamine], in assay [2], the “Relative Activity (%)” value is recorded as 5%. On the same count and under the same terms, with `NCCCc1ccccc1` [3-Phenylpropylamine] the figure was 1%. With `CC(=O)c1cccnc1` [3-Acetylpyridine], the “Relative Activity (%)” value in assay [1] (setting [6]) is 14%. In the case of `NCCCCC(N)C(=O)O` (racemic) [DL-Lysine], the “Activity … as amino group donor (in words)” value in assay [2] is “not exhibiting activity; also recorded: does not act”. The “Relative Activity (%)” value in assay [3] (setting [7]) worked out at 0%. On to `CC(=O)c1ccccc1O` [2′-Hydroxyacetophenone], for which, in assay [1] (setting [6]), the “Relative Activity (%)” value is recorded as 24%. As for `CC(=O)Cc1cccc(C(F)(F)F)c1` [3′-Trifluoromethylphenyl acetone], in assay [1] (setting [6]), the “Relative Activity (%)” value is reported as 60%.

In the case of `CCCCCC(C)N` (stereo not shown) [2-Heptylamine], in assay [2], the “Relative Activity (%)” value is 28%. Same read-out and setting: with `CC(C)N` [Isopropylamine] the figure was 0%. Consider `NCCS(=O)(=O)O` [Taurine], for which the “Activity … as amino group donor (in words)” value in assay [2] is given as “does not act; also recorded: not exhibiting activity”. Further, the “Relative Activity (%) of (S)-α-Phenethylamine:Pyruvate Transaminase [Present Invention]” value (“Relative Activity (%) … [Present Invention]” below) in assay [3] (setting [7]) is 0%. In addition, the “Relative Activity (%) of ω-Amino acid:Pyruvate Transaminase [Derived from Pseudomonas F-126]” value in assay [4] is listed as 132%. On to `CC(=O)c1ccco1` [2-Acetylfuran], for which the “Relative Activity (%)” value in assay [1] (setting [6]) turned out to be 3%. As for `COc1ccc(CC(C)N)cc1OC` (stereo not shown) [1-(3,4-Dimethoxyphenyl)-2-aminopropane], the “Relative Activity (%)” value in assay [2] is on record as 18%. Take `CCC(=O)C(=O)O` [2-Ketobutyric acid]: the “Relative Activity (%)” value in assay [1] (setting [8]) came out at 5.8%. Take `CC(N)CCc1ccccc1` (stereo not shown) [1-Phenyl-3-aminobutane]: in assay [2], the “Relative Activity (%)” value was 80%. With `COc1ccc(CCC(C)=O)cc1` [4-(4′-Methoxyphenyl)-2-butanone], the “Relative Activity (%)” value in assay [1] (setting [6]) is given as 35%. The same measure, in the same setting: the value for `COc1cccc(C(C)=O)c1` [3′-Methoxyacetophenone] was 4%.

Turning to `NCc1ccccc1` [Benzylamine], in assay [2], the “Relative Activity (%)” value stood at 13%. As to `O=CC(=O)O` [Glyoxylic acid], in assay [1], the “Activity … as amino group receptor (in words)” value is listed as “high activity; also recorded: exhibiting activity; also recorded: exhibits activity”. In addition, the “Relative Activity (%)” value in assay [1] (setting [8]) is listed as 100%.

With `CC(=O)COc1ccccc1` [Phenoxy-2-propanone], the “Relative Activity (%)” value in assay [1] (setting [9]) came to 46%. Regarding `C[C@H](N)c1ccccc1` [(S)-α-Phenethylamine], in assay [2], the “Activity … as amino group donor (in words)” value is “especially high activity; also recorded: specifically high activity; also recorded: exhibiting activity; also recorded: exhibits high activity” and the “Relative Activity (%)” value is listed as 100%. Moreover, in assay [3] (setting [7]), the “Relative Activity (%)” value stood at 100% and the “Relative Activity (%) … [Present Invention]” value is 100%. As to `CCCC(=O)C(=O)O` [2-Keto-valeric acid], in assay [1] (setting [8]), the “Relative Activity (%)” value is reported as 1.5%. Regarding `CC(=O)CCc1ccccc1` [Benzyl acetone], in assay [1] (setting [6]), the “Relative Activity (%)” value worked out at 70%. Consider `C[C@@H](N)c1ccccc1` [(R)-α-Phenethylamine], for which the “Relative Activity (%)” value in assay [2] is listed as 3%.

Take `O=CCCc1ccccc1` [3-Phenylpropionaldehyde]: the “Relative Activity (%)” value in assay [1] (setting [9]) is 16%. For the compound `NCCCCN` [Putrescine], the “Activity … as amino group donor (in words)” value in assay [2] was “does not act; also recorded: not exhibiting activity”. For the same compound, the “Relative Activity (%) … [Present Invention]” value in assay [3] (setting [10]) and in assay [3] (setting [7]) was 0% throughout. In addition, the “Relative Activity (%) of ω-Amino acid:Pyruvate Transaminase [Derived from Pseudomonas F-126]” value in assay [4] is 18%. Further, the “Relative Activity (%) of 4-Aminobutyrate:2-ketoglutarate Transaminase [Derived from Pseudomonas F-126]” value in assay [5] was 8%. Consider `NCCCC(=O)O` [4-Aminobutyric acid], for which, in assay [2], the “Activity … as amino group donor (in words)” value is reported as “does not act”. The “Relative Activity (%) … [Present Invention]” value in assay [3] (setting [10]) turned out to be 0%. Further, the “Relative Activity (%) of 4-Aminobutyrate:2-ketoglutarate Transaminase [Derived from Pseudomonas F-126]” value in assay [5] was 100%. With `CCCCN` [n-Butylamine], in assay [2], the “Relative Activity (%)” value is reported as 2%.

With `COCC(C)=O` [Methoxypropanone], the “Relative Activity (%)” value in assay [1] (setting [9]) was 5%. Consider `CCC(C)N` (stereo not shown) [2-Butylamine], for which, in assay [2], the “Relative Activity (%)” value worked out at 1%. On to `COc1ccc(CC(C)=O)cc1OC` [3′,4′-Dimethoxyphenyl acetone], for which the “Relative Activity (%)” value in assay [1] (setting [6]) was determined as 38%. On the same count and under the same terms, the value for `CC(=O)c1cnccn1` [Acetylpyrazine] was 100%. Turning to `O=CCc1ccccc1` [Phenylacetaldehyde], the “Relative Activity (%)” value in assay [1] (setting [9]) was determined as 37%.

For `CC(=O)c1ccc(Cl)cc1` [4′-Chloroacetophenone], the “Relative Activity (%)” value in assay [1] (setting [6]) was 22%. In the case of `CCC(=O)Cc1ccccc1` [1-Phenyl-2-butanone], the “Relative Activity (%)” value in assay [1] (setting [6]) worked out at 5%.

As to `CCCN` [n-Propylamine], the “Relative Activity (%)” value in assay [2] was found to be 0%. The same measure, in the same setting: the value for `CC(N)c1cccc(O)c1` (stereo not drawn) [3′-Hydroxy-α-phenethylamine] was 52%. Consider `CC(=O)CC(=O)c1ccccc1` [Benzoyl acetone], for which the “Relative Activity (%)” value in assay [1] (setting [6]) was found to be 12%. With `NCCc1ccccc1` [β-Phenethylamine], the “Relative Activity (%)” value in assay [2] was found to be 23%. For the compound `CC(=O)c1ccccn1` [2-Acetylpyridine], the “Relative Activity (%)” value in assay [1] (setting [6]) came to 42%. Consider `NCCC(=O)O` [β-Alanine], for which, in assay [2], the “Activity … as amino group donor (in words)” value is on record as “does not act; also recorded: not exhibiting activity”. Also, the “Relative Activity (%) … [Present Invention]” value in assay [3] (setting [10]) and in assay [3] (setting [7]) was 0% in each case. The “Relative Activity (%) of ω-Amino acid:Pyruvate Transaminase [Derived from Pseudomonas F-126]” value in assay [4] is 100%. The “Relative Activity (%) of 4-Aminobutyrate:2-ketoglutarate Transaminase [Derived from Pseudomonas F-126]” value in assay [5] was 0%. `COc1ccc(CC(C)=O)cc1` [4′-Methoxyphenyl acetone]: the “Relative Activity (%)” value in assay [1] (setting [6]) turned out to be 12%.
